Data reported in patent publication US6444819B1, “Benzylpiperazinyl and piperidinyl ethanone derivatives: dopamine receptor subtype specific ligands” (Neurogen Corporation, priority 1998, dated 2002).

Molecular target: T1, human D4 receptors (Homo sapiens, UniProt P21917)
T1 construct: expressed in transfected cells; host or cells: CHO cells
T1 sequence (P21917 1-419): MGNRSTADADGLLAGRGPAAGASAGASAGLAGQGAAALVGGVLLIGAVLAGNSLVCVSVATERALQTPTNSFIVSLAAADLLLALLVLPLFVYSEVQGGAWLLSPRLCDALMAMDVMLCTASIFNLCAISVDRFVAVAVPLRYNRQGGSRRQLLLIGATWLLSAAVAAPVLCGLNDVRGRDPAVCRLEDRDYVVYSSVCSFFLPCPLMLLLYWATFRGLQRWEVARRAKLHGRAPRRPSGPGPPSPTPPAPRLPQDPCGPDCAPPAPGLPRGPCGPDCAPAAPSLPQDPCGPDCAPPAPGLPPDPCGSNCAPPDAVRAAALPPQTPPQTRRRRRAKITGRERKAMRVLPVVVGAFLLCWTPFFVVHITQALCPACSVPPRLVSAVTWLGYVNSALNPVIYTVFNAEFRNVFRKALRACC
Test: D4 receptor binding assay (3H-YM 09151-2 displacement)
Details: CHO cell membranes with cloned human D4 receptor; 0.5 nM 3H-YM 09151-2
Method: The cloned membranes are homogenized in 100 volumes (wt/vol) of 0.05 M Tris-HCl buffer at 4° C. and pH 7.4 containing 120 mM NaCl, 1 mM EDTA and 5 mM MgCl2. The samples were centrifuged at 48,000×g then re-suspended and re-homogenized. The final tissue sample is kept frozen until use. The tissue is resuspended 1:20 (wt/vol) in 0.05 M Tris-HCl buffer containing 120 mM NaCl prior to use.
Non-specific binding is defined as that binding found in the presence of 1 mM spiperone; without further additions, nonspecific binding is less than 20% of total binding.

CCCCN(C(=O)CN1CCN(Cc2ccc(Cl)cc2)CC1)c1ccccc1 [Compound 2, N-butyl-2-(4-(4-chlorobenzyl)piperazinyl)-N-phenylethanamide]
Ki: 0.154 µM
